Test results as given in patent US20240208997A1, “CYCLIC BENZIMIDAZOLE DERIVATIVES AS CGAS INHIBITORS” (Boehringer Ingelheim International GmbH, priority 2022, published 2024).
pIC50: −log10 of the molar value.

Tests used:
[1] = test system: IFN induction in virus-stimulated THP1 cells; experiment: Human cGAS cell assay, virus-stimulated THP1-Dual cells (THP1(vir) IC50); format: cell-based; conditions: THP-1, 18 h, Table 1, baculovirus-stimulated THP1-Dual cells, Lucia luciferase, 18 h, read-out: THP(vir) IC50
Description: 6.2 Method: Human cGAS Cell Assay and cGAMP Stimulated Counter Cell Assay (THP1(vir) IC50 and THP1(cGAMP) IC50)
THP1-Dual™ cells (InvivoGen #thpd-nfis) expressing IRF dependent Lucia luciferase reporter were used as basis for both assays. For the detection of cellular cGAS activity cells were stimulated by a baculovirus (pFastbac-1, Invitrogen, no coding insert) infection that delivers the cGAS enzyme stimulating double-stranded DNA (measurement of THP1(vir) IC50).
Pathway activity was monitored by measuring the Lucia luciferase activity induced by either DNA stimulated cGAS enzyme activity (measurement of THP1(vir) IC50) or by cGAMP directly (measurement of THP1(cGAMP) IC50, counter assay).
Compounds were delivered in 10 mM DMSO solution, serially diluted and transferred to the 384 well assay plate (Greiner #781201) using an Echo acoustic dispenser. Typically, 8 concentrations were used with the highest concentration at 10 μM in the final assay volume followed by ^˜1:5 dilution steps. DMSO concentration was set to 1% in the final assay volume. The 384 well assay plate contained […] (column 1-22), and DMSO in column 23 and 24.
Cells, cultivated according to manufacturer conditions, were harvested by centrifugation at 300 g/10 min and were then resuspended and diluted to 1.66E5 cells/ml in fresh cell culture medium (RPMI 1640 (Gibco #A10491-01), 10% FCS (Gibco #10500), 1× GlutaMax (Gibco #35050-061), 1× Pen/Strep solution (Gibco #15140-122), 100 μg/ml Normocin (InvivoGen #ant-nr), 100 μg/ml Zeocin (InvivoGen #ant-zn), 10 μg/ml Blasticidin S (Life Technologies #A11139-03)). The baculovirus solution was then added 1:200 (have varied according to virus batch) to the cells (measurement of THP1(vir) IC50).
30 μL of the cell/virus-mix were added to each well of the compound plate from column 1-23 via MultiDrop Combi dispenser (5000 cells/well). In column 24, 30 μl/5000 cells/well without virus were added as a low control.
The plates were then incubated for 18 h at 37° C. in a humidified incubator.
Following that, 15 μL of QuantiLuc detection reagent (InvivoGen #rep-qlcg5) were added to each well using a MultiDrop Combi. Measurement was done immediately after the addition using an EnVision reader (US-luminescence read-mode).
(§1) Data Evaluation and Calculation:
For data evaluation and calculation, the measurement of the low control was set as 0% control and the measurement of the high control was set as 100% control. The IC50 values were calculated using the standard 4 parameter logistic regression formula. Calculation: [y=(a−d)/(1+(x/c)^b)+d], a=low value, d=high value; x=conc M; c=IC50 M; b=slope

[2] = test system: IFN induction in dsDNA-stimulated human whole blood; experiment: Human whole blood assay (hWB IC50), dsDNA stimulated, IFNα2α production; format: cell-based; conditions: Table 1
Method: 6.3 Method: Human Whole Blood Assay (Human WB IC50)
For the detection of cellular cGAS activity human whole blood was stimulated by transfection with double stranded DNA. Pathway activity was monitored by measuring the IFNα2α production.
Compounds were delivered as 10 mM DMSO solution and serially diluted and transferred to the 96-well cell culture plate (Corning #3595), prefilled with 20 μl OptiMEM (Gibco, #11058-021) in each well, using an Echo acoustic dispenser. Typically, 8 concentrations were used with the highest concentration at 10 μM in the final assay volume followed by ^˜1:5 dilution steps. DMSO concentration was set to 0.1% in the final assay volume. The 96-well assay plate contained 10 test compounds, and DMSO in control wells.
Collection of human whole blood from 3 or more healthy donors (male or female, no medication for 7 days except contraceptive and thyroxine) as Na-Citrate blood (e.g. 3.8% in Monovettes from Sarstedt) was conducted in parallel. Whole blood was kept at room temperature for a maximum of 3 hours after collection until use in the assay. 160 μl of the whole blood samples was transferred to each well of the 96-well assay plates filled with compound/OptiMEM. All assay plates were prepared as duplicates with blood from different donors. Blood plates were kept at room temperature for 60 minutes and continuous shaking with 450 rpm, covered with the lid, but not sealed.
20 μl OptiMEM and 9.6:1 Fugene was added to all low control wells.
After covering assay plates with aera seals and the lid, blood plates were kept at room temperature for 30 minutes and continuous shaking with 450 rpm, followed by an overnight incubation of 22 h at 37° C. in the incubator, without shaking.
For the detection of IFNα-2α in human plasma, the biotinylated capture antibody (Antibody set IFNA2, Meso Scale Diagnostics #B21VH-3, including coating and capture antibody) was diluted 1:17.5 in Diluent 100 (Meso Scale Diagnostics #R50AA-4), according to the manufacturer's directions. U-Plex MSD GOLD 96-well Small Spot Strepavidin SECTOR Plates (Meso Scale Diagnostics #L45SA-5) were coated with 25 μl diluted capture antibody. Coated plates were incubated for 60 min at room temperature under continuous shaking at 700 rpm. MSD IFNα-2α plates were washed three times with 150 μl wash buffer (1× HBSS, 0.05% Tween).
After blocking the plates with 100 μl block solution/well (1× HBSS with 0.2% Tween, 2% BSA) for 60 min at room temperature and continuous shaking at 700 rpm, plates were emptied as dry as possible by dumping just before continuing with the human plasma.
Whole Blood assay plates were centrifuged at 1600 rpm for 10 minutes. 25 μl of supernatant was transferred with a pipetting robot from each whole blood plate to the corresponding IFNα-2α plate. Plates were sealed with microplate seals and kept at room temperature again under continuous shaking at 700 rpm for two hours.
Next MSD IFNα-2α plates were washed three times with 150 μl wash buffer (1× HBSS, 0.05% Tween), before adding 25 μl MSD SULFO-TAG IFNα-2α Antibody solution (1:100 diluted in Diluent 3 (Meso Scale Diagnostics #R50AP-2) to each well of the plates.
Afterwards plates were sealed with microplate seals and kept at room temperature again under continuous shaking at 700 rpm for two hours. Finally, MSD IFNα-2α plates were washed three times with 150 μl wash buffer (1× HBSS, 0.05% Tween). 150 μl 2× Read buffer was added to each well and plates were immediately measured with the MSD Sector S600 Reader using the vendor barcode.
as §1
For data evaluation and calculation, % control calculation of each well was based on the mean of high (DNA stimulated control) and mean of low (unstimulated control) controls by using the following formula:
[counts(sample)−counts(low))/(counts(high)−counts(low))]*100
The IC50-values were calculated using the standard 4 parameter logistic regression formula. […]

`C[C@H]1CN2CC[C@@H]1n1c(nc3ccccc31)O[C@H]1C[C@@H](C(=O)O)N(C1)c1nc(nc3c1oc1ccccc13)C(F)(F)CCCCC(F)(F)C2=O` [Example 1.17] showed a pIC50 [1] of 7.89 and a pIC50 [2] of 8.10.

In the case of `C[C@H]1CN2CC[C@@H]1n1c(nc3ccccc31)O[C@H]1C[C@@H](C(=O)O)N(C1)c1nc(nc3c1oc1ccccc13)CCOCCCC2=O` [Example 1.05], the pIC50 [1] was 8.54 and the pIC50 [2] was 8.30.

`C[C@@H]1CC(=O)N2CCC(CC2)n2c(nc3ccccc32)O[C@H]2C[C@@H](C(=O)O)N(C2)c2nc(nc3c2oc2ccccc23)CCCO1` [Example 7.01] gave a pIC50 [1] of 6.82 and a pIC50 [2] of 7.00.

`C[C@H]1CN2CC[C@@H]1n1c(nc3ccccc31)O[C@H]1C[C@@H](C(=O)O)N(C1)c1nc(nc3c1oc1cc(Cl)ccc13)C(F)(F)CCCCCC2=O` [Example 1.16] was tested, and the pIC50 [1] was 8.01 and the pIC50 [2] was 8.00.

`C[C@H]1CN2CC[C@@H]1n1c(nc3cc(Cl)ccc31)O[C@H]1C[C@@H](C(=O)O)N(C1)c1nc(nc3c1oc1ccccc13)C(F)(F)CCCCCC2=O` [Example 1.12] was tested, and the pIC50 [1] was 8.66 and the pIC50 [2] was 8.30.

With `C[C@H]1CN2CC[C@@H]1n1c(nc3ccccc31)O[C@H]1C[C@@H](C(=O)O)N(C1)c1nc(nc3c1oc1cc(F)ccc13)C(F)(F)CCCCCC2=O` [Example 1.14] the pIC50 [1] was 8.82 and the pIC50 [2] was 8.40.

With `O=C(O)[C@@H]1C[C@H]2CN1c1nc(nc3c1oc1ccccc13)COCCCCCC(=O)N1CCC(CC1)n1c(nc3cccc(F)c31)O2` [Example 5.01] the pIC50 [1] was 7.42 and the pIC50 [2] was 7.48.

Work on `C[C@H]1CN2CC[C@@H]1n1c(nc3ccccc31)O[C@H]1C[C@@H](C(=O)O)N(C1)c1nc(nc3c1oc1ccccc13)CCCCCOC2=O` [Example 10.02] yielded a pIC50 [1] of 7.19 and a pIC50 [2] of 7.08.

With `C[C@H]1CN2CC[C@@H]1n1c(nc3ccccc31)O[C@H]1C[C@@H](C(=O)O)N(C1)c1nc(nc3c1oc1ccccc13)CCCCCC2=O` [Example 1.19] the pIC50 [1] was 7.40 and the pIC50 [2] was 7.74.

With `C[C@H]1CN2CC[C@@H]1n1c(nc3ccccc31)O[C@H]1C[C@@H](C(=O)O)N(C1)c1nc(nc3c1oc1ccccc13)CCCCCN(C)C2=O` [Example 13.01] the pIC50 [1] was 6.30 and the pIC50 [2] was 6.73.

In the case of `O=C(O)[C@@H]1C[C@H]2CN1c1nc(nc3c1oc1ccccc13)CCOCCCC(=O)N1CCC(CC1)n1c(nc3ccc(F)cc31)O2` [Example 1.04], the pIC50 [1] was 7.36 and the pIC50 [2] was 7.36.

`C[C@H]1CN2CC[C@@H]1n1c(nc3cc(F)ccc31)O[C@H]1C[C@@H](C(=O)O)N(C1)c1nc(nc3c1oc1cc(F)ccc13)C(F)(F)CCCCCC2=O` [Example 1.15] gave a pIC50 [1] of 8.15 and a pIC50 [2] of 8.52.

Molecule `C[C@H]1CN2CC[C@@H]1n1c(nc3cc(F)ccc31)O[C@H]1C[C@@H](C(=O)O)N(C1)c1nc(nc3c1oc1ccccc13)C(F)(F)CCCCC(F)(F)C2=O` [Example 1.18] has a pIC50 [1] of 7.43 and a pIC50 [2] of 8.00.

Molecule `C[C@H]1CN2CC[C@@H]1n1c(nc3ccccc31)O[C@H]1C[C@@H](C(=O)O)N(C1)c1nc(nc3c1oc1cc(Cl)ccc13)CCOCCCC2=O` [Example 1.07] has a pIC50 [1] of 8.19 and a pIC50 [2] of 7.89.

`C[C@H]1CN2CC[C@@H]1n1c(nc3ccc(Cl)cc31)O[C@H]1C[C@@H](C(=O)O)N(C1)c1nc(nc3c1oc1ccccc13)CCOCCCC2=O` [Example 1.06] was tested, and the pIC50 [1] was 8.39 and the pIC50 [2] was 7.82.

With `C[C@@H]1CN2CC[C@H]1n1c(nc3ccccc31)O[C@H]1C[C@@H](C(=O)O)N(C1)c1nc(nc3c1oc1ccccc13)CCCCCOC2=O` [Example 10.01] the pIC50 [1] was 6.74 and the pIC50 [2] was 6.36.

`C[C@H]1CN2CC[C@@H]1n1c(nc3cccc(Cl)c31)O[C@H]1C[C@@H](C(=O)O)N(C1)c1nc(nc3c1oc1ccccc13)CC(=O)NCCCC2=O` (racemic) [Example 2.01, (12S,14S)-4-chloro-37-methyl-29,34-dioxo-11,18-dioxa-2,9,15,26,30,35,40-heptaazaoctacyclo[33.2.2.1^12,15.1^16,27.0^2,10.0^3,8.0^17,25.0^19,24]hentetraconta-3,5,7,9,16(40),17(25),19(24),20,22,26-decaene-14-carboxylic acid] was tested, and the pIC50 [1] was 7.96 and the pIC50 [2] was 7.46.

In the case of `C[C@@H]1CCCCC(=O)N2CCC(CC2)n2c(nc3ccccc32)O[C@H]2C[C@@H](C(=O)O)N(C2)c2nc1nc1c2oc2ccccc21` [Example 1.26], the pIC50 [1] was 8.26 and the pIC50 [2] was 7.72.

With `C[C@H]1CCCCC(=O)N2CCC(CC2)n2c(nc3ccccc32)O[C@H]2C[C@@H](C(=O)O)N(C2)c2nc1nc1c2oc2ccccc21` [Example 1.25] the pIC50 [1] was 8.10 and the pIC50 [2] was 7.39.

`O=C(O)[C@@H]1C[C@H]2CN1c1nc(nc3c1oc1ccccc13)COCCCC(F)(F)C(=O)N1CCC(CC1)n1c(nc3ccccc31)O2` [Example 8.01] showed a pIC50 [1] of 7.41 and a pIC50 [2] of 7.46.

Work on `C[C@H]1CN2CC[C@@H]1n1c(nc3ccc(Cl)cc31)O[C@H]1C[C@@H](C(=O)O)N(C1)c1nc(nc3c1oc1ccccc13)COCCCCC2=O` [Example 1.10] yielded a pIC50 [1] of 7.89 and a pIC50 [2] of 7.92.

`O=C(O)[C@@H]1C[C@H]2CN1c1nc(nc3c1oc1ccccc13)CCCOCC(=O)N1CCC(CC1)n1c(nc3ccccc31)O2` [Example 9.01] showed a pIC50 [1] of 6.40 and a pIC50 [2] of 7.39.

In the case of `O=C(O)[C@@H]1C[C@H]2CN1c1nc(nc3c1oc1ccccc13)CCOCCCC(=O)N1CCC(CC1)n1c(nc3cc(F)ccc31)O2` [Example 1.03], the pIC50 [1] was 6.96 and the pIC50 [2] was 7.44.

With `C[C@H]1CN2CC[C@@H]1n1c(nc3ccccc31)O[C@H]1C[C@@H](C(=O)O)N(C1)c1nc(nc3c1oc1ccccc13)C(F)(F)COCCCC2=O` [Example 4.01] the pIC50 [1] was 9.16 and the pIC50 [2] was 9.00.

Molecule `Cc1cccc2c1nc1n2[C@H]2CCN(C[C@@H]2C)C(=O)CCCCCC(F)(F)c2nc(c3oc4ccccc4c3n2)N2C[C@H](C[C@H]2C(=O)O)O1` [Example 1.28] has a pIC50 [1] of 7.82 and a pIC50 [2] of 7.55.
